Reference: patent publication US6482802B1 (Endowment for Research in Human Biology, Inc., priority 1998, dated 2002)
“And” between values parts separate entries of the source, which are not always exact repeats. Equal entries are not always repeated.

Legend:
HUVE cells [1] = assay: VEGF-induced proliferation of HUVE cells; type: cell-based, human; settings: for VEGF Cell No.: VEGF 5 ng/ml, 48 hrs, 0 μM: 45100 ± 200
Method: (§1) The cells were incubated at 37° C. under humidified air containing 5% CO2 for 48 hrs. […] Cell numbers were determined with a Coulter counter.

[2] = tested on: nuclear translocation of aFGF in HUVE cells; assay: Nuclear translocation of 125I-aFGF in HUVE cells; type: cell-based, human; settings: for aFGF Counts (nuclear fraction): 125I-aFGF 50 ng/ml, 0 μM: 7800 ± 100
Method: (§2) Inhibition of nuclear translocation of angiogenic factors in HUVE cells was performed in the following manner. […] The cell pellet was washed once with PBS and lysed with 0.5% triton X-100 in PBS. […] Radioactivity in the nuclear fraction was determined with a gamma counter.

HUVE cells [3] = assay: aFGF-induced proliferation of HUVE cells; type: cell-based, human; settings: for aFGF Cell No.: aFGF 10 ng/ml, 48 hrs, 0 μM: 73900 ± 2500
Method: as §1

[4] = tested on: chorioallantoic membrane (CAM) of chick embryos; assay: CAM assay, bFGF-induced angiogenesis; type: in vivo; settings: for % Positive: bFGF alone 78, water 21
Method: (§3) Angiogenesis was measured on the CAM by the method of Knighton et al. (Knighton et al., 1977, Br. J. Cancer 35:347-356) essentially as described (Fett et al., 1985, Biochemistry 24:5480-5486). Fertilized chicken eggs were kept at 18° C. for 2 days and then incubated in a humidified environment at 37° C. for 3 days. Albumin was aspirated from the embryos and after 24 hours, a “window” was cut through the shell and covered with clear tape. […] After 48-68 hours at 37° C., the growth of blood vessels was observed microscopically and recorded as either positive or negative. A positive response (i.e., an angiogenic response) has a typical “spokewheel” appearance.

[5] = tested on: chorioallantoic membrane (CAM) of chick embryos; assay: CAM assay, neomycin alone without angiogenic factor; type: in vivo
Method: as §3

[6] = tested on: chorioallantoic membrane (CAM) of chick embryos; assay: CAM assay, EGF-induced angiogenesis; type: in vivo; settings: for % Positive: EGF alone 69, water 21
Method: as §3

Human angiogenin = molecular target: T1, Human angiogenin (Homo sapiens, UniProt P03950); assay: Ribonucleolytic activity of angiogenin, yeast tRNA substrate; type: biochemical
T1 construct: made in house; host or cells: Escherichia coli
T1 sequence (P03950 with tags, fused parts or gaps): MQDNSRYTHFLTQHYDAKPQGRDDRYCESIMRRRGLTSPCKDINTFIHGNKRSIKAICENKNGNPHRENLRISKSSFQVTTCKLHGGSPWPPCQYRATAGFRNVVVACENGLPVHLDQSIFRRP
Method: After incubation for 2 hr at 37° C., […] of 3.4% ice-cold perchloric acid was added, the mixture was vortexed, kept on ice for […] and centrifuged at 15,000×g for 10 min at 4° C. The absorbance of the supernatants was measured at 260 nm.

HUVE cells [7] = assay: HUVE cell number with neomycin alone, no angiogenic factor; type: cell-based, human; settings: 48 hrs, 0 μM: 31400 ± 400
Method: as §1

[8] = tested on: nuclear translocation of EGF in HUVE cells; assay: Nuclear translocation of 125I-EGF in HUVE cells; type: cell-based, human; settings: for EGF Counts (nuclear fraction): 125I-EGF 50 ng/ml, 0 μM: 140 ± 20
Method: as §2

[9] = tested on: PC-3 human prostate tumor cells
From the text: Mice were examined daily by palpation for the first sign of tumor appearance at which time tumor size was estimated twice weekly by caliper measurements (longest perpendicular length and width).

[10] = tested on: nuclear translocation of 125I-angiogenin in HUVE cells; assay: Nuclear translocation of 125I-angiogenin in HUVE cells
HUVE cells [11] = assay: bFGF-induced proliferation of HUVE cells, aminoglycoside antibiotics; type: cell-based, human; settings: aminoglycoside 100 μM
Method: HUVE cells were seeded at 4×10^3 cells/cm^2 in attachment factor (Cell Systems Corp.)-coated 35 mm dishes in HE-SFM, and incubated with 1 μg/ml angiogenin in the presence or absence of inhibitors at 37° C. for 48 hr. Cell were detached by trypsinization and cell numbers were determined with a Coulter counter.
The ability of the other members of the aminoglycoside antibiotic family to inhibit bFGF-induced proliferation of HUVE cells was examined in a similar manner as for angiogenin as described in Section 6.1.1.5, above. HUVE cells, passage 9, were seeded on attachment-factor coated dishes at 50,000 cells per 35 mm dish in HE-SFM. Aminoglycoside antibiotics were added and the cells were incubated with or without […] at 37° C. for 48 hr.

[12] = tested on: MDA-MB-435 human breast tumor cells; type: in vivo
Method: MDA-MA-435 human breast tumor cells, which are estrogen receptor negative, were injected directly into the mammary fat pad of athymic mice. Age-matched athymic female mice were assigned to treatment groups of 8 mice each and anesthetized with ketamine (212 mg/kg body weight) and xylazine (21.2 mg/kg body weight) given intraperitoneally and allowed to stabilize under anesthesia for 15 min. A heating pad was used to maintain their body temperature throughout the procedure to minimize stress. Betadine followed by 70% alcohol was swabbed onto the skin of the left lateral thorax. An incision of 6 mm in length was made through the skin in the area of the left lateral thorax behind the left front leg and the mammary fat pad was exposed by using gentle pressure with two fingers to separate the skin at the incision site. MDA-MB-435 human breast tumor cells were harvested by trypsinization, washed in HBSS, counted using trypan blue exclusion to determine cell viability, and 10,000 cells in a total volume of 20 μl were injected into the fat pad using a 27 gauge needle. The incision was closed with 2 drops of Vetbond veterinarian tissue adhesive and the mouse was allowed to recover on the heating pad before returning to its cage. […] Mice were examined daily for tumor growth by gentle palpation of the lateral left thorax in the general area of the injection.

## neomycin
HUVE cells [1]; neomycin 25 μM
  VEGF Inhib. % of cell proliferation: 14%
  VEGF Cell No.: 41000 ± 300
HUVE cells [1]; neomycin 50 μM
  VEGF Inhib. % of cell proliferation: 20%
  VEGF Cell No.: 38900 ± 1300
HUVE cells [1]; neomycin 100 μM
  VEGF Inhib. % of cell proliferation: 22%
  VEGF Cell No.: 36400 ± 400
HUVE cells [1]; neomycin 150 μM
  VEGF Inhib. % of cell proliferation: 36%
  VEGF Cell No.: 35000 ± 200
HUVE cells [1]; neomycin 200 μM
  VEGF Inhib. % of cell proliferation: 34%
  VEGF Cell No.: 33800 ± 200
[2]; neomycin 10 μM
  aFGF % Inhib. of nuclear translocation: 15%
  aFGF Counts (nuclear fraction): 6600 ± 100 cpm
[2]; neomycin 50 μM
  aFGF % Inhib. of nuclear translocation: 26%
  aFGF Counts (nuclear fraction): 5800 ± 100 cpm
[2]; neomycin 100 μM
  aFGF % Inhib. of nuclear translocation: 32%
  aFGF Counts (nuclear fraction): 5300 ± 100 cpm
[2]; neomycin 150 μM
  aFGF % Inhib. of nuclear translocation: 38%
  aFGF Counts (nuclear fraction): 4800 ± 100 cpm
[2]; neomycin 200 μM
  aFGF % Inhib. of nuclear translocation: 43%
  aFGF Counts (nuclear fraction): 4500 ± 200 cpm
HUVE cells [3]; neomycin 25 μM
  aFGF Inhib. % of cell proliferation: 25%
  aFGF Cell No.: 60000 ± 400
HUVE cells [3]; neomycin 50 μM
  aFGF Inhib. % of cell proliferation: 42%
  aFGF Cell No.: 51300 ± 400
HUVE cells [3]; neomycin 100 μM
  aFGF Inhib. % of cell proliferation: 50%
  aFGF Cell No.: 46700 ± 800
HUVE cells [3]; neomycin 150 μM
  aFGF Inhib. % of cell proliferation: 63%
  aFGF Cell No.: 41000 ± 1000
HUVE cells [3]; neomycin 200 μM
  aFGF Inhib. % of cell proliferation: 68%
  aFGF Cell No.: 37500 ± 200
HUVE cells [3]; read-out: IC50, aFGF-induced proliferation of endothelial cells
  IC50: ~100 µM
[4]; bFGF 10 ng + neomycin 20 ng
  % Inhibition of angiogenic activity: 58%
  % Positive: 45%
[4]; bFGF 10 ng + neomycin 20 ng, 33 total eggs
  Positive eggs: 15
[4]; bFGF 10 ng + neomycin 200 ng
  % Inhibition of angiogenic activity: 81%
  % Positive: 34% and 32%
[4]; bFGF 10 ng + neomycin 200 ng, 38 total eggs
  Positive eggs: 12
[4]; in vivo
  dosage that inhibited bFGF-induced angiogenesis: about 200 ng per embryo
[5]; about 5 to about 50 μM (20 to 200 ng in 5 μl)
  induction of angiogenesis by neomycin itself: does not induce angiogenesis
[5]; neomycin 20 ng alone, 50 total eggs
  Positive eggs: 10
[5]; neomycin 20 ng alone, water 20-21
  % Positive: 20%
[5]; neomycin 200 ng alone, 29 total eggs
  Positive eggs: 6
[5]; neomycin 200 ng alone, water 20-21
  % Positive: 21%
[5]; neomycin 1000 ng alone, 13 total eggs
  Positive eggs: 3
[5]; neomycin 1000 ng alone, water 21
  % Positive: 23%
[6]; EGF 10 ng + neomycin 20 ng
  % Inhibition of angiogenic activity: 19%
  % Positive: 60%
[6]; EGF 10 ng + neomycin 20 ng, 15 total eggs
  Positive eggs: 9
[6]; EGF 10 ng + neomycin 200 ng
  % Inhibition of angiogenic activity: 81%
  % Positive: 30%
[6]; EGF 10 ng + neomycin 200 ng, 30 total eggs
  Positive eggs: 9
[6]; in vivo
  dosage that inhibited EGF-induced angiogenesis: about 200 ng per embryo
Human angiogenin; neomycin 5 μM
  ribonucleolytic activity of angiogenin, % of control: 87%
Human angiogenin; neomycin 10 μM
  ribonucleolytic activity of angiogenin, % of control: 105%
Human angiogenin; neomycin 50 μM
  ribonucleolytic activity of angiogenin, % of control: 88%
HUVE cells [7]; neomycin 25 μM
  Control Cell No.: 29800 ± 300
HUVE cells [7]; neomycin 50 μM
  Control Cell No.: 28800 ± 1000
HUVE cells [7]; neomycin 100 μM
  Control Cell No.: 27900 ± 500
HUVE cells [7]; neomycin 150 μM
  Control Cell No.: 27400 ± 200
HUVE cells [7]; neomycin 200 μM
  Control Cell No.: 26300 ± 400
[8]; neomycin 10 μM
  EGF % Inhib. of nuclear translocation: 0%
  EGF Counts (nuclear fraction): 140 ± 20 cpm
[8]; neomycin 50 μM
  EGF % Inhib. of nuclear translocation: 0%
  EGF Counts (nuclear fraction): 140 ± 20 cpm
[8]; neomycin 100 μM
  EGF % Inhib. of nuclear translocation: 7%
  EGF Counts (nuclear fraction): 130 ± 30 cpm
[8]; neomycin 150 μM
  EGF % Inhib. of nuclear translocation: 14%
  EGF Counts (nuclear fraction): 120 ± 10 cpm
[8]; neomycin 200 μM
  EGF % Inhib. of nuclear translocation: 29%
  EGF Counts (nuclear fraction): 100 ± 20 cpm
[9]; 20 mg/kg body weight s.c., 6 times per week 20 days, then 4 times per week 30 days, 6 mice
  mice in which appearance of PC-3 tumors was prevented: 50%
[9]; 20 mg/kg s.c., control 2 of 6 with tumor
  tumor status of treated mice by day 18: all of the mice in the neomycin-treated group remained tumor-free
[9]; 20 mg/kg s.c., control 100%
  animals that had developed tumors as of day 42: 50%
[10]; inhibitor 10 μM, 125I-angiogenin 1 μg/ml 30 min
  % inhibition of nuclear translocation of angiogenin: 42%
[10]; inhibitor 100 μM, 37° C. 30 min, 125I-angiogenin 1 μg/ml 30 min, control 3090 ± 260
  Nuclear 125I-angiogenin: 1230 ± 60 cpm
[10]; neomycin 500 μM
  125I-angiogenin accumulated in the nucleus, % of control: 14%
[10]; neomycin 500 μM, control 3090±260
  Nuclear accumulated 125I-angiogenin: 420±100 cpm
[10]; read-out: IC50, angiogenin nuclear translocation, HUVE cells
  IC50: ~50 µM
HUVE cells [11]; bFGF 10 ng/ml
  % Inhibition of bFGF-induced cell proliferation: 71%
HUVE cells [11]; bFGF 10 ng/ml, 48 hr, control 99000 ± 1000
  bFGF (10 ng/ml) Cell Numbers: 68400 ± 800
HUVE cells [11]; no bFGF, 48 hr, control 61300 ± 500
  Control (cell number without bFGF): 58000 ± 1500
[12]; 60 mg/kg body weight i.p., daily 20 days, then 4 times per week 42 days, 8 mice
  establishment of MDA-MB-435 human breast tumors: completely inhibited the establishment
[12]; 60 mg/kg i.p., all 8 control mice developed tumors
  mice with tumors by day 56: none of the mice had tumors
